Laboratory results published in patent US7399639B2, “Sensors, and methods of making and using the same” (Massachusetts Institute of Technology, priority 2003, dated 2008).
Where “and” joins values, the source holds several entries; their conditions need not be identical. Equal entries are not always repeated. Where two headings read alike, the source gives them in different places.

Legend:
[1] = Quantum yields / fluorescence emission against fluorescein standard; type: physicochemical; settings: for λmax (Em, nm): HEPES 50 mM, pH 7.5, KCl 100 mM; for Φ: fluorescein standard
Experimental: (§1) The above results were obtained using the following experimental methods. For all fluorescence experiments, the glassware was washed sequentially with 20% HNO3, deionized water, and ethanol before use. Purified water (resistivity […]) was obtained from a Millipore Milli-Q water purification system. Fluorophore stock solutions in DMSO were made up to concentrations of 1 mM and kept at 4° C. in 100-500 μL aliquots. Portions were thawed and diluted to the required concentrations immediately prior to each experiment. Fluorescence and absorption data were acquired in HEPES buffer (50 mM, pH 7.5, KCl 100 mM) except where otherwise noted. Solutions were transferred to clean, dry propylene containers for storage, and filtered through 0.25 μm syringe filters before data acquisition. Fluorescence spectra were measured from 475 nm to 650 nm. All measurements were performed in triplicate.
Quantum Yields. Quantum yields were calculated by recording UV-vis spectra of the fluorophore under study and a 1 μM fluorescein standard in 0.1 N NaOH to determine the wavelength where sample and fluorescein absorption were equal. The fluorescence spectrum of each was then recorded, exciting at the wavelength determined by uv-vis spectra comparison. The integrated emission of the sample was normalized to the fluorescein standard and multiplied by the standard quantum yield of 0.95. Brannon, J. H.; Magde, D. J. Phys. Chem. 1978, 82, 705-709.

[2] = Extinction coefficients / absorption spectra in HEPES buffer; type: physicochemical; settings: for λmax (Abs, nm): HEPES 50 mM, pH 7.5, KCl 100 mM
Experimental: as §1
Extinction Coefficients. A 2 mL portion of HEPES buffer was titrated with 2 μL aliquots of 1 mM fluorophore stock solution and the absorption measured at each concentration. The absorbance at the maximum was plotted as a function of concentration, and the slope was taken as the extinction coefficient. The procedure was repeated using 1.9 mL portions of HEPES buffer containing 100 μL aliquots of 10 mM ZnCl2 solution.

HeLa cells = assay: Cell permeability studies using Zn-pyrithione, fluorescence microscopy; type: cell-based; settings: 5 μM ligand 30 min RT, 10 μM Zn^2+-pyrithione
Experimental: FIG. 10 depicts phase contrast (A) and fluorescence microscopy (B) visualization of HeLa cells treated with the ligands of Formula 101, 103, and 31 in the absence of zinc. Cells were bathed in 5 μM ligand for 30 min at RT, followed by untreated PBS for 10 min.
FIG. 11 depicts phase contrast (A) and fluorescence microscopy (B) visualization of HeLa cells treated with the ligands of Formula 101, 103, and 31 in the presence of zinc. Cells were bathed in 5 μM ligand for 30 min at RT, followed by 10 μM Zn^2+-pyrithione.
FIG. 12 depicts phase contrast (A) and fluorescence microscopy (B) visualization of HeLa cells treated with the ligands of Formula 100, 102, and 31 in the absence of zinc. Cells were bathed in 5 μM ligand for 30 min at RT, followed by untreated PBS for 10 min.
FIG. 13 depicts phase contrast (A) and fluorescence microscopy (B) visualization of HeLa cells treated with the ligands of Formula 100, 102, and 31 in the presence of zinc. Cells were bathed in 5 μM sensor for 30 min at RT, followed by 10 μM Zn^2+-pyrithione.

[3] = reported elsewhere; cited from earlier work
[4] = metal-free; reported elsewhere; cited from earlier work
[5] = Metal ion selectivity measurements of Zinpyr dyes; settings: 1 μM Zinpyr, divalent first-row transition metals and Cd(II)
Experimental: Metal Ion Selectivity Measurements. The metal ion selectivity of Zinpyr-5 and Zinpyr-6 for a number of divalent first-row transition metals, in addition to cadmium, is investigated using fluorescence spectroscopy. Aqueous metal ion solutions for Ca(II), Mg(II), Mn(II), Co(II), Ni(II) and Cd(II) are prepared from the chloride salts and Millipore water. The Cu(II) solution are prepared from copper sulfate and Fe(II) solutions are prepared immediately before use with ferrous ammonium sulfate and Millipore water that was thoroughly purged with Ar. In a typical experiment, 15 μL of a ˜10 mM metal solution is added to a 1 μM Zinpyr solution (3 mL) and the emission spectra is recorded with excitation at 498 nm (Zinpyr-5) or 500 nm (Zinpyr-6). […] of 10 mM ZnCl2 is then added and the emission spectra is obtained. The spectra are integrated from 505-650 nm (Zinpyr-5) or 450-650 nm (Zinpyr-6) and normalized.

[6] = Quantum yield and emission measurements of Zinpyr dyes; type: physicochemical
Experimental: (§2) General Spectroscopic Methods. PIPES (piperazine-N,N′-bis(2-ethanesulfonic acid) from Calbiochem, KCl (99.997%), and ZnCl2 (99.999%) are purchased and used as received. All experiments for this Example Eight, with the exception of the pKa experiment, are conducted under stimulated physiological conditions using 50 mM PIPES, 100 mM KCl adjusted to pH 7 via drop-wise addition of KOH. Millipore water is used for all aqueous solutions, which are filtered through a 0.2 μm cellulose filter prior to use (buffered dye solutions should not be put through the filters because the dyes will get stuck). An Orion glass electrode, which is calibrated prior to each use, is used to determine solution pH. The accuracy of each micropipette is verified prior to use. Zinc solutions are prepared from 100 mM and 10 mM stock solutions in water (pH 5). The concentrations of the stock solutions is verified by spectrophotometric titration with 2,2′:6′,2″-terpyridine, which is was performed a minimum of three times per solution. In a typical titration, 0.5 μL aliquots of a 10 mM (nominal) Zn(II) solution in water is added to a 10 μM solution of terpyridine in 50 mM PIPES, 100 mM KCl, pH 7 prepared from a 100 mM stock solution in DMSO. The equivalence point at 321 nm and at 291 nm is determined and used to calculate the Zn(II) concentration. Stock solutions of Zinpyr-5 (0.76 mM) and Zinpyr-6 (0.41 mM) in DMSO are prepared, stored at −25° C., and thawed in the dark immediately prior to use. All spectral data are manipulated with the KaleidaGraph software package.
Fluorescence Spectroscopy. Emission spectra are obtained using a Hitachi F-3010 spectrofluorimeter linked to a Pentium PC running the SpectraCalc software package. A 150 W Xe lamp (Ushio Inc.) operating at a current of 5 A provides the excitation. A rhodamine quantum counter is used to normalize the spectra for excitation intensity, and manufacturer-supplied correction curves are used to normalize the emission spectra. Manufacturer supplied photomultiplier curves are used to correct for emission intensity. A circulating water bath is used during all experiments to regulate the temperature at 25.0° C.±0.1° C. All spectra are obtained using 3 nm slit widths and a 240 nm/min scan speed, and all samples are contained in a 1 cm×1 cm quartz cuvette with a 3.5 mL volume. All measurements are made in triplicate, with the exception of the Zinpyr-6 pKa titration, and on different days to assure the authenticity of the results.
Quantum Yield Measurements. The quantum yields of Zinpyr-5 and Zinpyr-6 are determined using a solution of fluorescein in 0.1 N NaOH (φ=0.95) as a reference. In a typical experiment, a 6 mL solution of 1 μM Zinpyr is prepared. For metal-free studies, 6 μL of 100 mM K4EDTA is added to chelate any adventitious metal ions. To determine the quantum efficiencies of the metal-bound dyes, either 2 μL (Zinpyr-5) or 6 μL (Zinpyr-6) of a 100 mM ZnCl2 stock solution is added to a 1 μM Zinpyr solution. The concentration of the reference solution is adjusted to match the excitation spectra of the Zinpyr dye, and the appropriate excitation wavelength is determined from where the reference and probe excitation spectra intersect. Excitation is provided at 497 nm (Zinpyr-5 and Zinpyr-6, metal-free), 491 nm (Zinpyr-5, metal-bound), or 493 (Zinpyr-6, metal-bound). Emission spectra are integrated from 450-650 nm and the quantum yields were calculated using the standard equation. Godwin, H. A.; Berg, J. M. J. Am. Chem. Soc. 1996, 118, 6514-6515.

[7] = Protonation constants that affect fluorescence of Zinpyr dyes; type: physicochemical; settings: for pKa: aqueous solution of 100 mM KCl, 10 mM KOH, Zinpyr-6 value estimated from preliminary results
Experimental: Studies of Protonation Constants that Effect Fluorescence. The apparent protonation constants that affect fluorescence are determined by plotting the integrated emission intensity versus pH from ˜12.5 to 2. In a typical experiment, a 30 mL solution of 1 μM Zinpyr in 100 mM KCl, 10 mM KOH is adjusted to pH 12.5 by drop-wise addition of KOH. Aliquots of 6 N, 2 N, 1 N, 0.5 N, 0.5 N, 0.1 N, and 0.01 N HCl are added to achieve pH changes of approximately […], and the emission spectrum is gathered at each interval. The overall volume change for each experiment is monitored so as not to exceed ˜3%. Excitation is provided at 498 nm for Zinpyr-5 and at 500 nm for Zinpyr-6. Data is integrated from 505 nm to 650 nm, normalized and plotted against pH. The data were fit to the non-linear expression previously described. Godwin, H. A.; Berg, J. M. J. Am. Chem. Soc. 1996, 118, 6514-6515.

[8] = UV-visible spectroscopy of Zinpyr dyes (excitation maxima, molar absorptivity); type: physicochemical; settings: for ε: at excitation maximum
Experimental: as §2
UV-Visible Spectroscopy. Excitation spectra are obtained using a Cary IE scanning spectrophotometer controlled by a Pentium PC running the manufacturer supplied software program. A circulating water bath is used during all acquisitions to maintain the temperature at 25.0° C.±0.1° C. All data are collected using a 600 nm/min scan speed and a 1 nm data interval. […] Molar absorptivity values are determined from a minimum of three titrations over a concentration range of 10 μM to 1 μM. […]

[9] = Zn(II) binding studies (fluorescence spectroscopy), dual-metal buffering system, Zinpyr dyes; settings: titration with dual-metal buffering system, 0.17 nM to 25 nM free Zn(II)
Experimental: General Spectroscopic Methods. PIPES (piperazine-N,N′-bis(2-ethanesulfonic acid) from Calbiochem, KCl (99.997%), and ZnCl2 (99.999%) are purchased and used as received. All experiments for this Example Eight, with the exception of the pKa experiment, are conducted under stimulated physiological conditions using 50 mM PIPES, 100 mM KCl adjusted to pH 7 via drop-wise addition of KOH. Millipore water is used for all aqueous solutions, which are filtered through a 0.2 μm cellulose filter prior to use (buffered dye solutions should not be put through the filters because the dyes will get stuck). An Orion glass electrode, which is calibrated prior to each use, is used to determine solution pH. The accuracy of each micropipette is verified prior to use. Zinc solutions are prepared from 100 mM and 10 mM stock solutions in water (pH 5). […] The equivalence point at 321 nm and at 291 nm is determined and used to calculate the Zn(II) concentration. […]
Zn(II) Binding Studies (Fluorescence Spectroscopy). The dissociation constants, Kd, for Zn(II) binding were determined using a dual-metal buffering system, which affords concentrations of free Zn(II) in the nM range. […] The response was quantified by integrating the emission intensity from 505-650 nm and normalizing. […]
The binding affinities for Zinpyr-5 and Zinpyr-6 were determined using the dual-metal buffering system previously described. […]

[10] = Affinity of compound 30 for Zn2+; type: binding
[11] = metal-free, 50 mM PIPES, 100 mM KCl, pH 7

## O=C(O)c1ccc2c(c1)C(=O)OC21c2cc(Cl)c(O)c(CN(Cc3ccccn3)Cc3ccccn3)c2Oc2c1cc(Cl)c(O)c2CN(Cc1ccccn1)Cc1ccccn1 [Formula 101]
[1]; +Zn^2+ complex
  Brightness: 5.5 × 10^4
  λmax (Em, nm): 532 nm
  Φ: 0.62
[1]; free ligand
  Brightness: 1.4 × 10^4
  λmax (Em, nm): 536 nm
  Φ: 0.17
[2]; +Zn^2+ complex
  εmax: 88000 M⁻¹ cm⁻¹
  λmax (Abs, nm): 509 nm
[2]; free ligand
  εmax: 81000 M⁻¹ cm⁻¹
  λmax (Abs, nm): 520 nm
HeLa cells
  uptake into cells: not taken up by the cell

## COc1ccc(NCc2c(O)ccc3c(-c4ccccc4C(=O)O)c4cc(Cl)c(=O)cc-4oc23)c(CN(Cc2ccccn2)Cc2ccccn2)c1 [Zinpyr-3]
[3]
  fluorescence change upon addition of Zn(II): negligible
[4]
  quantum efficiency: 0.04

## O=C(O)c1ccccc1-c1c2cc(Cl)c(=O)cc-2oc2c(CNc3ccc(Cl)cc3CN(Cc3ccccn3)Cc3ccccn3)c(O)ccc12 [Zinpyr-6]
[5]
  metal ion selectivity: Zn(II) and Cd(II) selective
[6]
  increase in brightness upon Zn(II) coordination: 3.8 fold and 3.7 fold
  increase in quantum efficiency upon addition of excess Zn(II): 3.4 fold
[6]; Zn(II) bound
  brightness (φ×ε): 33,000 M^−1 cm^−1
  emission maximum: 515 nm
  quantum efficiency: 0.34
[6]; metal-free
  brightness (φ×ε): 8,900 M^−1 cm^−1
[6]; [11]
  emission maximum: 519 nm
  quantum efficiency: 0.10
[7]; Zinpyr-6 data preliminary
  pH at which maximum emission is reached: ~5
[7]; read-out: apparent pKa, first protonation event (fluorescence enhancement; tertiary amine)
  pKa: ~10
[7]; read-out: apparent pKa, second protonation event (fluorescence enhancement; aniline nitrogen)
  pKa: ~6.4
[7]; read-out: apparent pKa, third protonation event (fluorescence quenching)
  pKa: ~4.6
[8]; Zn(II) bound
  excitation maximum: 495 nm
  ε: 98,000 M^−1 cm^−1
[8]; metal-free
  ε: 88,600 M^−1 cm^−1
[9]
  increase in integrated emission: 2.5- to 3 fold and ~3 fold

## O=C(O)c1ccccc1-c1c2cc(Cl)c(=O)cc-2oc2cc(N(Cc3ccccn3)Cc3ccccn3)ccc12 [compound 30, 9-(o-Carboxyphenyl)-2-chloro-6-[bis(2-pyridylmethyl)amino]-3-xanthanone]
[10]
  affinity for Zn^2+: weak
